{"source": "patent US8053627B2", "about": "“Methods for treating demyelination disorders” (University of Chicago, priority 2005, dated 2011)", "key": {"corpus callosum": {"system": "corpus callosum", "assay": "Cuprizone remyelination in double transgenic mice on PERK+/+ or PERK+/− background", "assay_type": "in vivo", "conditions": "for remyelinated axons: 9 weeks", "excerpt": "The involvement of the ER stress response in the reduction caused by IFN-γ to remyelinate lesions was examined in transgenic mice that were generated to be heterozygous for a loss of function mutation in pancreatic ER kinase (PERK) (Harding, et al., (2001) Mol Cell 7:1153-1163), and to be temporally regulated for expressing INF-γ in the CNS. TRE/IFN-γ mice were first crossed with PERK+/− mice (Harding, et al. (2001) Mol. Cell 7: 1153-1163) on the C57BL/6 background to generate mice the carry the PERK mutation, and the resulting progeny were crossed to GFAP/tTA mice to obtain transgenic mice that were heterozygous for the PERK mutation. The effect of PERK on remyelination in the presence or absence of INF-γ was evaluated as evaluated as a function of the level of meylination of oligodendrocytes in remyelinating lesions and the number of oligodendrocytes present in the remyelinating lesion.\nThe extent of remyelination was assessed as described in the previous examples in the corpus callosum of PERK+/+ and PERK+/− mice that were made to express INF-γ (DOX−PERK+/+ and DOX−PERK+/−), and in mice in which the expression of INF-γ was repressed (DOX+PERK+/+ and DOX+PERK+/−). Remyelination was determined by electron microscopy, and was related to the number of CC1 positive oligodendrocytes and the level of caspase-3 expression in the corpus callosum of all animals. The level of caspase-3 was determined by immunohistochemical methods using anti capsase antibody (active-casoase-3 antibody, 1:50; Cel Signaling Technology) and according to the method described in Example 1. Demyelination was induced in six-week-old GFAP/tTA; TRE/IFN-γ double transgenic mice on a PERK+/− background that had been maintained on doxycycline, by simultaneously treating the mice with 0.2% cuprizone and releasing them from doxycycline (DOX−PERK+/−). Remyelination was allowed to occur by withdrawing cuprizone at week 6."}, "[1]": {"system": "myelinating oligodendrocytes in the CNS", "assay": "Ectopic CNS expression of IFN-γ during development (released from doxycycline at E14), wild-type or PERK+/− background", "assay_type": "in vivo, mice", "excerpt": "To study the effect of INF-γ on the myelination of oligodendrocytes during mouse development, transgenic mice that allow for temporally regulated delivery of IFN-γ to the CNS using the tetracycline (tet) controllable system (Lin, et al. (2004) J. Neurosci. 24: 10074-10083) were generated. To drive tTA expression in astrocytes, the transcriptional regulatory region of the glial fibrillary acidic protein (GFAP) gene was chosen (Brenner, et al. (1994) J. Neurosci. 14: 1030-1037). GFAP/tTA mice were mated with TRE/IFN-γ mice to produce animals hemizygous for both transgenes. When these mice are maintained on doxycycline (DOX+), expression of the IFN-γ transgene is repressed (FIG. 10A); when the double transgenic mice are released from doxycycline (DOX−) INF-γ is expressed. For the purpose of these experiments, mice received doxycycline up to day 14 of development (E14), at which time the experimental animals (DOX−) stopped receiving doxycycline, while the control animals (DOX+) were continuously fed the dug. The mRNA for IFN-γ could be detected in the DOX− mice as early as 10 days after birth (data not shown).\nReal time PCR analysis was performed to determine the levels of expression of INF-γ, MHC-1, BIP, CHOP, and caspase 12. The primers for the PCR reactions for BIP, CHP and caspase 12 are given in example 1. The sense and antisense primers for INF-γ were […] (SEQ ID NO: 39) and […] (SEQ ID NO: 40), respectively; and the sense and antisense primers for MHC-1 were MHC-I sense primer: ATTCCCCAAAGGCCCATGT (SEQ ID NO: 1); and MHC-I antisense primer: […] (SEQ ID NO: 2).\nWestern blot analysis was performed on the CNS of 14 day old mice to determine the expression of caspase-12 as described in Example 6.\nBrain and spinal cord tissue were analyzed using immunohistochemical methods as follows. Anesthetized mice were perfused through the left cardiac ventricle with 4% paraformaldehyde in 0.1M PBS. The half-saggital brains and transcervical spinal cord were removed, postfixed with paraformaldehyde, cryopreserved in 30% sucrose, embedded in OCT and frozen on dry ice. Frozen sections were cut in a cryostat at a thickness of 10 μm. Coronal sections at the fornix region of the corpus callosum corresponding to Sidman sections 241-251 were selected for use, and all comparative analyses were restricted to midline corpus callosum (Sidman, et al. (1971) Atlas of the Mouse Brain and Spinal Cord (Harvard Univ. Press, Cambridge, Mass.). For immunohistochemistry, frozen sections were treated with −20° C. acetone, blocked with PBS containing 10% NGS and 0.1% Triton X-100 and incubated overnight with the primary antibody diluted in blocking solution. Appropriate fluorochrome- or enzyme-labeled secondary antibodies (Vector Laboratories, Burlingame, Calif.) were used for detection. An antibody against CC1 (APC7, 1:50; EMD Biosciences, Inc., La Jolla, Calif.) was used as a marker for mature oligodendrocytes. Antibody against MBP (1:1000; Sternberger Monoclonals, Lutherville, Mass.) was used to verify the degree of myelination. Antibody against active-caspase-3 (1:50, Cell signaling Technology, Beverly, Mass.) was used as a marker for apoptotic cells. Fluorescent stained sections were mounted with Vectashield mounting medium with DAPI (Vector Laboratories) and visualized with a Zeiss Axioplan fluorescence microscope. Images were captured using a Photometrics PXL CCD camera connected to an Apple Macintosh computer using the Open Lab software suite. Immunopositive cells were quantified by counting positive cells within the median of the corpus callosum, confined to an area of 0.04 mm^2. Only those cells with nuclei observable by DAPI staining were counted. Each MBP immunostaining slide was scored on a scale of zero to four. A score of zero indicates complete demyelination, and a score of four indicates normal myelination in the corpus callosum of adult mice. […]"}, "[2]": {"conditions": "PERK+/− background, released from doxycycline at E14"}, "[3]": {"conditions": "wild-type background, released from doxycycline at E14"}}}
{"substance": "IFN-γ: pleotropic cytokine secreted by activated T lymphocytes and natural killer cells; delivered to the CNS by transgene or added as recombinant protein", "values": [{"measurement": "remyelinated axons", "setting": "corpus callosum; DOX−PERK+/+", "result": "31.1%±7.6%"}, {"measurement": "CC1 positive oligodendrocytes", "setting": "corpus callosum; DOX−PERK+/+, week 9", "result": "123.2±27.5 /0.04 mm^2"}, {"measurement": "remyelinated axons", "setting": "corpus callosum; DOX−PERK+/−", "result": "15.6%±7.6%"}, {"measurement": "caspase-3 positive oligodendrocytes, DOX−PERK+/− relative to DOX−PERK+/+", "setting": "corpus callosum; week 9", "result": 2.3, "unit": "times"}, {"measurement": "BIP expression relative to control levels", "setting": "[1]; CNS, PND 14, DOX− from E14", "result": "approximately 1.6 times"}, {"measurement": "CHOP expression relative to control levels", "setting": "[1]; CNS, PND 14, DOX− from E14", "result": "~2", "unit": "times"}, {"measurement": "caspase-12 expression", "setting": "[1]; CNS, PND 14, DOX− from E14", "result": "strongly enhanced"}, {"measurement": "state of myelination", "setting": "[1]; DOX− double transgenic mice, wild-type background", "result": "mildly hypomyelinated"}, {"measurement": "decrease of oligodendrocyte numbers in the spinal cord (CC1)", "setting": "[1]; PERK+/− background, 14-day-old", "result": "more than 50%"}, {"measurement": "mice that died by post natal day (PND) 27", "setting": "[1]; [2]", "result": "more than 90%"}, {"measurement": "mice that experienced tonic seizures", "setting": "[1]; [2]", "result": "approximately two-thirds"}, {"measurement": "unmyelinated axons in the spinal cord", "setting": "[1]; PERK+/− mice expressing IFN-γ, 14-day-old", "result": "81%±14.9%"}, {"measurement": "TUNEL positive oligodendrocytes in the cervical spinal cord, PERK+/− relative to wild-type background", "setting": "[1]; released from doxycycline at E 14", "result": 2.5, "unit": "times"}, {"measurement": "survival", "setting": "[1]; [3]", "result": "normal survival"}, {"measurement": "unmyelinated axons in the spinal cord", "setting": "[1]; [3]", "result": "30%±12.9%"}]}
